Experimental data from ChEMBL document CHEMBL5226335, “Efforts towards the inhibitor design for New Delhi metallo-beta-lactamase (NDM-1)” (Eur J Med Chem, 2021).
Converted amounts (≈) assume the structure as drawn.

Tested on: Klebsiella pneumoniae
Test: Antibacterial activity against Klebsiella pneumoniae N11-2218 expressing NDM-1infected in mouse assessed as survival rate at 10 mg/kg,sc measured after 5 days
Format: functional
Conditions: N11-2218, 120 h, time 5 day
For `COc1cc(/C=C/c2ccc(O)cc2)cc(OC)c1` [PTEROSTILBENE], the survival at 10 mg/kg was 52%. For `N[C@H](CN[C@H](CN[C@@H](CC(=O)O)C(=O)O)C(=O)O)C(=O)O`, the survival at 10 mg/kg was 95%.

Tested on: Escherichia coli
Test: Antibacterial activity against Escherichia coli expressing NDM-1
Format: functional
Conditions: not given
`CCN(CC)C(=S)SSC(=S)N(CC)CC` [DISULFIRAM] gave an MIC of 16 µg/mL (≈ 54 µM).

Tested on: not listed separately
Test: Inhibition of NDM-1 (unknown origin)
Design: species or system Bacteria
Conditions: not given
With `O=c1c2ccccc2sn1-c1ccccc1` the IC50 was 0.16 µM. `C[C@@H](CS)C(=O)N[C@@H](C(=O)O)c1ccc2cc[nH]c2c1` gave an IC50 of 64.8 µM. For `CC1=C(c2ccc(Cl)cc2)N(/C(C)=N/c2ccc(Cl)cc2)C(c2ccc(Cl)cc2)N1c1ccc(Br)cc1` (stereo not drawn), the IC50 was 400 µM. With `O=C(O)c1cc(-c2ccccc2O)cc(C(=O)O)n1` the IC50 was 0.13 µM. Work on `Oc1c(C(Nc2ccc(F)cc2)c2cncs2)ccc2cccnc12` (stereo not drawn) yielded an IC50 of 10.3 µM. For `Cc1cc(-c2ccccc2)c(C(=O)O)[nH]1`, the pIC50 was 4.5. `CCCC/C(=N\Nc1cccc2cccnc12)C(=O)O` showed an IC50 of 82.3 µM. With `O=C(O)c1cccc(C(=O)O)n1` [DIPICOLINIC ACID] the IC50 was 1.13 µM. In the case of `Nc1cccc(-c2cc(C(=O)O)nc(C(=O)O)c2)c1`, the IC50 is reported as 0.08 µM. For `O=C(O)c1cccc(CP(=O)(O)O)n1`, the IC50 was 0.374 µM. `Cc1cccc(-c2cc[nH]c2C(=O)O)c1` gave a pIC50 of 4.2. `O=C(Nc1cccc(-c2cc(C(=O)O)nc(C(=O)O)c2)c1)c1ccccc1` gave an IC50 of 0.13 µM. In the case of `CCCC/C(=N\Nc1cccc2ccccc12)C(=O)O`, the IC50 is reported as 28.1 µM. `CC1(C)S[C@@H]2CS[C@@H](CS)N2[C@H]1C(=O)O` gave an IC50 of 180 µM. In the case of `NCc1ccc(Cn2ccnc2C(=O)O)cc1`, the IC50 is reported as 165 µM. Work on `CN(C)c1ccc(-c2cc(C(=O)O)nc(C(=O)O)c2)cc1` yielded an IC50 of 0.19 µM. `O=C(O)CSC(=O)C(Cc1ccccc1)NC(=O)Cc1ccc(-c2ccccc2)cc1` (stereo not drawn) gave an IC50 of 44 µM. `CC(C)c1cc2c(c(O)c1O)[C@@]1(C(=O)O)CCCC(C)(C)[C@@H]1CC2` [CARNOSIC ACID] gave an IC50 of 27.1 µM. Compound `O=C(O)[C@@H]1CS[C@H]2CS[C@H](CS)N21` has an IC50 of 23 µM. `CSCCC(NC(=O)Cc1ccccc1)C(=O)SCC(=O)O` (stereo not drawn) showed an IC50 of 19.7 µM. Compound `COc1cccc2sc(Nc3nnc(-c4cccs4)o3)nc12` has an IC50 of 0.692 µM. `CC(=O)C1CSC(C(=O)O)N1` (stereo not drawn) gave an IC50 of 3.45 µM. Compound `CCN(CC)C(=S)SSC(=S)N(CC)CC` [DISULFIRAM] has an IC50 of 0.13 µM. `O=C(O)c1nccn1Cc1ccc(O)cc1` gave an IC50 of 118 µM. `C[C@H](CS)C(=O)N[C@@H](C(=O)O)c1ccc2cc[nH]c2c1` gave an IC50 of 24.8 µM. With `O=C(O)CSC(=O)C(Cc1c[nH]c2ccccc12)NC(=O)Cc1ccccc1` (stereo not drawn) the IC50 was 27.9 µM. Work on `CC(=O)NC1=C(S)/C(=C\S)NC1=O` yielded an IC50 of 0.11 µM. `O=C(O)c1ccc(O)c(CP(=O)(O)O)n1` showed an IC50 of 0.322 µM. For `CCCCC(=O)NC(Cc1c[nH]c2ccccc12)C(=O)SCC(=O)O` (stereo not drawn), the IC50 was 54.9 µM. In the case of `CC1=C(c2ccc(Cl)cc2)N(/C(C)=N/c2ccc(Br)cc2)C(c2ccc(Cl)cc2)N1c1ccc(Br)cc1` (stereo not drawn), the IC50 is reported as 600 µM. Work on `Oc1c(C(Nc2ccccn2)c2cccs2)ccc2cccnc12` (stereo not drawn) yielded an IC50 of 0.463 µM. In the case of `CCC/C(=N\Nc1cccc2cccnc12)C(=O)O`, the IC50 is reported as 68.2 µM. For `O=C(O)c1ccc(N(Cc2ccccc2)C(=O)c2cccs2)c(CP(=O)(O)O)n1`, the IC50 was 0.306 µM. Compound `O=C(Cc1ccccc1)N[C@@H]1C(=O)N2C(C(=O)O)=C(CSc3nnc(-c4ccc(-n5[se]c6ccccc6c5=O)cc4)[nH]3)CSC12` (stereo partly drawn) has an IC50 of 2.93 µM. `O=C(O)CSC(=O)C(Cc1c[nH]c2ccccc12)NC(=O)Cc1ccc(-c2ccccc2)cc1` (stereo not drawn) gave an IC50 of 16.6 µM. `CC1(C)S[C@H]2CS[C@H](CS)N2[C@@H]1C(=O)O` showed an IC50 of 200 µM. `CCCCC(=O)NC(Cc1ccccc1)C(=O)SCC(=O)O` (stereo not drawn) showed an IC50 of 28.6 µM. For `CC1=C(c2ccccc2)N(/C(C)=N/c2ccc(Cl)cc2)C(c2ccccc2)N1c1ccc(Cl)cc1` (stereo not drawn), the IC50 was 900 µM. `O=C(O)C(=O)CBr` [BROMOPYRUVATE] gave an IC50 of 2.57 µM. Compound `CCCCC(=O)NC(CCSC)C(=O)SCC(=O)O` (stereo not drawn) has an IC50 of 37.7 µM. Work on `O=C(O)[C@H]1CS[C@@H]2CS[C@@H](CS)N12` yielded an IC50 of 109 µM. In the case of `O=C(O)c1nccn1Cc1ccccc1`, the IC50 is reported as 63.4 µM.

Molecular target: not listed separately
Test: Binding affinity to NDM-1 (unknown origin) assessed as inhibition constant
Design: species or system Bacteria
Conditions: not given
Work on `O=C(CSc1nnc(-c2ccccc2O)s1)Nc1nc2ccccc2s1` yielded a Ki of 0.81 µM. Compound `O=C(CSc1nnc(-c2ccccc2O)s1)Nc1ccccc1` has a Ki of 0.64 µM. Compound `O=C(CSc1nnc(-c2ccncc2)o1)Nc1ccccc1` has a Ki of 0.23 µM. Work on `O=C(CSc1nnc(-c2ccncc2)s1)Nc1ccccc1` yielded a Ki of 1.2 µM. `O=C(CSc1nnc(-c2ccccc2O)[nH]1)Nc1ccccc1` gave a Ki of 0.43 µM. In the case of `O=C(CSc1n[nH]c(-c2ccncc2)n1)Nc1ccccc1`, the Ki is reported as 0.42 µM. Compound `O=c1c2ccccc2[se]n1-c1ccccc1` [EBSELEN] has a Ki of 0.38 µM. For `O=Cc1coc2ccccc2c1=O`, the Ki was 0.58 µM. In the case of `N[C@@H](C(=O)N[C@@H]1C(=O)N2C(C(=O)O)=C(Cl)CS[C@H]12)c1ccccc1` [CEFACLOR ANHYDROUS], the Ki is reported as 2300 µM. `O=C(NOC(=O)Oc1ccccc1)OCc1ccccc1` gave a Ki of 140 µM. In the case of `O=C(CSc1nnc(-c2ccccc2O)o1)Nc1ccccc1`, the Ki is reported as 0.6 µM. For `O=C(O)c1ncsc1NS(=O)(=O)c1cccnc1`, the Ki was 0.29 µM. `O=C(CSc1nnc(-c2ccccc2O)[nH]1)Nc1nc2ccccc2s1` showed a Ki of 0.35 µM.
